Experimental data published in ChEMBL document CHEMBL3351870, “Structure elucidation of phase I metabolites of the microtubule perturbagens: ceratamines A and B” (J Nat Prod, 2014).

Assays:
Liver microsome [1] = assay: Drug metabolism in rat liver microsomes incubated with 10 uM ceratamine B for 60 mins assessed as metabolite level in presence of 1 mM NADPH at pH 7.4 and 37 degC by Quadrupole-time-of-flight mass spectrometry; format: ADME; details: pH 7.4, 1 h
[2] = Retention time by reverse phase HPLC-UV chromatography; format: physicochemical
Liver microsome [3] = assay: Drug metabolism in rat liver microsomes incubated with 10 uM ceratamine A for 60 mins assessed as metabolite level in presence of 1 mM NADPH at pH 7.4 and 37 degC by Quadrupole-time-of-flight mass spectrometry; format: ADME; details: pH 7.4, 1 h
Liver microsome [4] = assay: Drug metabolism in rat liver microsomes incubated with 10 uM ceratamine B for 60 mins assessed as metabolite formation in presence of 1 mM NADPH at pH 7.4 and 37 degC by reverse phase HPLC-UV chromatography; format: ADME; details: pH 7.4, 1 h
Liver microsome [5] = assay: Drug metabolism in rat liver microsomes incubated with 10 uM ceratamine A for 60 mins assessed as metabolite formation in presence of 1 mM NADPH at pH 7.4 and 37 degC by reverse phase HPLC-UV chromatography; format: ADME; details: pH 7.4, 1 h

Drug metabolism (Liver microsome [1]) | Retention_time [2] | Drug metabolism (Liver microsome [3]) | Drug metabolism (Liver microsome [4]) | Drug metabolism (Liver microsome [5]) | SMILES
metabolite_detected | 20.1 min | metabolite_detected |  |  | CNc1nc2cc[nH]c(=O)c(Cc3cc(Br)c(O)c(Br)c3)c-2n1
metabolite_detected | 29.6 min | metabolite_detected |  |  | COc1c(Br)cc(Cc2c3nc(N)nc-3cc[nH]c2=O)cc1Br
 |  |  | metabolite_detected |  | CNc1nc2cc[nH]c(=O)c(Cc3cc(Br)c(OC)c(Br)c3)c-2n1
 |  |  |  | metabolite_detected | CNc1nc2ccn(C)c(=O)c(Cc3cc(Br)c(OC)c(Br)c3)c-2n1 [CERATAMINE A]
